Earlier results, collected in patent US20240398972A1, “METHODS FOR PRODUCING ANTIBODY-LINKER CONJUGATES” (ARARIS BIOTECH AG, priority 2021, published 2024).

Legend:
[1] = biological target: DNA-dependent RNA polymerase II (Homo sapiens, UniProt P24928); settings: complex amanitin / RNA-polymerase II, not covalently bound
[2] = tested on: various tumor cell lines; settings: cytostatic effects

Compound	Kd [1]	IC50 [2]
amanitin	3 nM	
CC[C@H](C)[C@H](NC(=O)[C@H]1CCCCN1C)C(=O)N(COC(=O)CC(C)C)[C@H](C[C@@H](OC(C)=O)c1nc(C(=O)N[C@@H](Cc2ccc(O)cc2)C[C@H](C)C(=O)O)cs1)C(C)C [Tubulysin A]		picomolar range
